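Five concentrations, 48 hours, 96-well plates. GI50 marks 50% less growth.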 Activity calls are given as the source filed them. Rule as the data show it: active = GI50 up to about 1.1 µM and inactive = higher.
Assays:
Test in all cases: DTP human tumour cell line panel, 48 h
NCI/ADR-RES = system: NCI/ADR-RES
SR = system: SR
K562 = system: K562
MDA-N = system: MDA-N
HL-60 = system: HL-60
CAKI-1 = system: CAKI-1
DU-145 = system: DU-145
TK-10 = system: TK-10
RPMI-8226 = system: RPMI-8226
MDA-MB-435 = system: MDA-MB-435
Hs-578T = system: Hs-578T
SW-620 = system: SW-620
OVCAR-4 = system: OVCAR-4
UACC-62 = system: UACC-62
HOP-92 = system: HOP-92
SF-539 = system: SF-539
SF-295 = system: SF-295
SK-OV-3 = system: SK-OV-3
SK-MEL-2 = system: SK-MEL-2
NCI-H460 = system: NCI-H460

Measured: GI50

CN1CCc2ccccc2C1Cc1ccccc1NC(=O)c1sc2ccccc2c1Cl (stereo unspecified)
inactive: NCI/ADR-RES > 100 µM | SR > 100 µM | K562 > 100 µM | MDA-N > 100 µM | HL-60 42.3 µM | CAKI-1 > 100 µM | DU-145 > 100 µM | TK-10 > 100 µM | RPMI-8226 > 100 µM | MDA-MB-435 > 100 µM | Hs-578T > 100 µM | SW-620 > 100 µM | OVCAR-4 > 100 µM | UACC-62 > 100 µM | HOP-92 > 100 µM | SF-539 > 100 µM | SF-295 > 100 µM | SK-OV-3 > 100 µM | SK-MEL-2 > 100 µM | NCI-H460 > 100 µM

COc1cc2c3cc1Oc1c(OC)c(OC)cc4c1C(Cc1ccc(O)c(c1)Oc1ccc(cc1)CC3N(C)CC2)N(C)CC4 (stereo unspecified)
inactive: NCI/ADR-RES 31.5 µM | SR 2.09 µM | K562 7.78 µM | MDA-N 21.7 µM | HL-60 28.3 µM | CAKI-1 17.9 µM | DU-145 37.8 µM | TK-10 42.8 µM | MDA-MB-435 > 10 µM | Hs-578T 24.2 µM | SW-620 69.8 µM | OVCAR-4 29 µM | UACC-62 44.6 µM | HOP-92 26.2 µM | SF-539 24.8 µM | SF-295 21.5 µM | SK-OV-3 29.6 µM | SK-MEL-2 28.8 µM | NCI-H460 15.7 µM

COC(=O)C(COC(=O)/C=C/c1ccc(OC(C)=O)c(OC(C)=O)c1)NC(=O)/C=C/c1ccc(OC(C)=O)c(OC(C)=O)c1 (stereo unspecified)
inactive: NCI/ADR-RES 45.8 µM | SR 18 µM | K562 > 100 µM | MDA-N 20.5 µM | HL-60 25.2 µM | CAKI-1 18.5 µM | DU-145 20.8 µM | RPMI-8226 19.6 µM | MDA-MB-435 28.3 µM | Hs-578T 30.3 µM | SW-620 33.4 µM | OVCAR-4 20.7 µM | UACC-62 15 µM | HOP-92 32.7 µM | SF-539 31.8 µM | SK-OV-3 67 µM | SK-MEL-2 18.3 µM | NCI-H460 21.3 µM

CN(CCNC(=O)c1cn(C)c2c1ccc1cc(Cl)ccc12)CCNC(=O)c1cn(C)c2c1ccc1cc(Cl)ccc12
inactive: NCI/ADR-RES 2.05 µM | SR 5.11 µM | K562 5.96 µM | MDA-N 1.95 µM | HL-60 3.26 µM | CAKI-1 1.6 µM | DU-145 1.73 µM | TK-10 7.13 µM | MDA-MB-435 1.44 µM | Hs-578T 1.94 µM | SW-620 5.28 µM | OVCAR-4 1.66 µM | UACC-62 5.97 µM | HOP-92 5.85 µM | SF-539 4.78 µM | SF-295 1.86 µM | SK-OV-3 1.56 µM | SK-MEL-2 6.92 µM | NCI-H460 3.24 µM
